Key:
[1] = target: T1, long-form human leptin receptor, OB-Rb (Homo sapiens, UniProt P48357); assay: 125I-labeled human leptin binding to OB-Rb on stably transfected HEK293 cells, with or without pre-incubation with human CRP
T1 construct: expressed in transfected cells
T1 sequence (P48357 22-1165): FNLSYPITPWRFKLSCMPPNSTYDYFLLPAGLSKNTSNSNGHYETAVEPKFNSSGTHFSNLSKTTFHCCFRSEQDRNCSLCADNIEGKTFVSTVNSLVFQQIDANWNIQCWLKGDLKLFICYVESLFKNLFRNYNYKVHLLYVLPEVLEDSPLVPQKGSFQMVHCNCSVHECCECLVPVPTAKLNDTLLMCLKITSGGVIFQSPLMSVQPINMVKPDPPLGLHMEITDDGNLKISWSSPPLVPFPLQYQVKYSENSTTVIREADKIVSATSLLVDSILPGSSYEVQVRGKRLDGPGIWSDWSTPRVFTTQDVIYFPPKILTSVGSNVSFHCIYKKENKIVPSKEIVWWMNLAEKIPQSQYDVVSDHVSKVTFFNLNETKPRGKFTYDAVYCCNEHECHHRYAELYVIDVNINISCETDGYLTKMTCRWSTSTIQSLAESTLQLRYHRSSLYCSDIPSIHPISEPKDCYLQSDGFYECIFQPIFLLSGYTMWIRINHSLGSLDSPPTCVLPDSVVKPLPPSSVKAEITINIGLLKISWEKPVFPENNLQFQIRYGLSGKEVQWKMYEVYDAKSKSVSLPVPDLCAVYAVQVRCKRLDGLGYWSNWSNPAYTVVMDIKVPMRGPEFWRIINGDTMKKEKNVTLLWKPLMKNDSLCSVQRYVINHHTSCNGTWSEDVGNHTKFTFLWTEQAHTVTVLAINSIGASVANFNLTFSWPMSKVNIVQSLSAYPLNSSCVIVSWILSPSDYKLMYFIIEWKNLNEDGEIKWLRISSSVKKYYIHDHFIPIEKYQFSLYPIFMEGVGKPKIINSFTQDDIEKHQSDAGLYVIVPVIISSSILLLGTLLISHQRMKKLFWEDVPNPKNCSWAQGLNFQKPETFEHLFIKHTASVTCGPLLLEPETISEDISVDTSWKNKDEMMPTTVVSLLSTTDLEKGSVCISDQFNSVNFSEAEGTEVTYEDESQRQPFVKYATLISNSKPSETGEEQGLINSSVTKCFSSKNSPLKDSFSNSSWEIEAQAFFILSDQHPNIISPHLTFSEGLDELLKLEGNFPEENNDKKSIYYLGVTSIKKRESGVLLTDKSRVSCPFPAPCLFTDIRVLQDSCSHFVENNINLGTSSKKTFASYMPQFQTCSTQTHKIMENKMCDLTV
Method: FIG. 4A. Interference effect of human CRP on human leptin binding to its receptor. HEK293 cells stably transfected with the long-form human leptin receptor, OB-Rb (14), are used to examine whether human CRP interferes with the ability of human leptin to bind to its receptor. […] The dashed line at the bottom right of the graph indicates ^125I-leptin bound when two thousand fold excess of non-labeled leptin is added.
To examine if CRP binding interferes with the stability of human leptin to bind to its receptors, a HEK293 cell line stably transfected with the long-form human leptin receptor, OB—Rb, was used (17). Human leptin was iodinated with Na^125I using the lodogen method. Briefly, 15 μg of recombinant human leptin in 100 mM Phosphate buffer pH 7.5 were incubated with 1 mCi of carrier-free Na^125I (2200 Ci/mmol) in a glass tube containing 50 μg Iodogen. After 10-minute incubation at room temperature, the reaction was stopped with 100 μl 0.1% trifluoroacetic acid (TFA). The reaction mixture was immediately purified by reverse-phase HPLC. The separation employed a 5-minute isocratic step at 20% eluant B in A, followed by two consecutive 30 min linear gradients from 20 to 50%, then from 50 to 60% eluant B in A (where eluant A is water containing 0.1% TFA and eluant B is acetonitrile containing 0.1% TFA) at a flow rate of 1.5 ml/min. […]

ob/ob mice = assay: Subcutaneous micro-osmotic pump infusion of human CRP and human leptin in ob/ob mice; assay type: in vivo, mouse; settings: for effect of CRP alone on food intake and body weight: CRP without leptin
Method: Micro-osmotic pumps (#1007D, DURECT, Cupertino, Calif.) were subcutaneously implanted into ob/ob or wild-type mice according to the instructions of the manufacturer. The osmotic pumps were pre-filled with saline, CRP, leptin or leptin plus CRP. Food intake (24-hour), body weight, and body temperature were monitored daily post-surgery. Blood glucose concentrations were measured using tail-vein blood samples using a Precision Plus® glucose meter, product of Medisense (Abbot Park, Ill.).
Human- and mouse-leptin concentrations were measured using ELISA kits from CHEMICON (Temecular, Calif.) and R&D Systems (Minneapolis, Minn.), respectively, accordingly to the instructions of the manufacturers. Serum mouse insulin and human CRP were determined with ELISA kits from LINCO Research (St. Charles, Mo.) and HELICA (Fullerton, Calif.), respectively. Serum- and tissue-triglycerides were determined with the protocols described previously (19).
Various amounts of human CRP, either alone or with human leptin, were administered via micro-osmotic pumps implanted s.c. into 8-week old ob/ob mice.
The above in vivo data were harvested from mice experiencing infusions of a mixture of CRP and leptin stored in a single mini-osmotic pump. Human CRP and leptin were also infused in separate osmotic pumps. […] Also compared to infusion from a single pump, detectable effects of human CRP on leptin were realized later, likely due to the time required to achieve diffusion and binding equilibrium.

CRP-transgenic mice = assay: Human leptin infusion in mice transgenically expressing human CRP and wild-type littermates; assay type: in vivo, mouse
Method: To complement the in vivo studies further, the satiety and weight-reducing functions of human leptin were evaluated in mice producing transgenically expressed human CRP (24). The average baseline serum concentration of human CRP in these mice was approximately 15 μg/ml. […] To evaluate the effects of human leptin in the transgenic mice, a dose of 0.6 mg/kg/day, which has been known to maximally but only temporarily affected energy balance in wild-type mice (25), was infused. […] At the end of infusion, the total human leptin concentration in the sera of transgenic mice averaged at 7.6 ng/ml, which was higher than that in the wild-type littermates at 3.2 ng/ml.

Substance	IC50 of human CRP for reducing 125I-labeled human leptin binding to its receptor ([1]; in the presence of about 2 ng/ml human leptin, 1 hour pre-incubation)	effect of human CRP on physiological actions of human leptin, separate osmotic pumps (ob/ob mice; food intake, body weight, blood glucose, serum insulin, matched serum CRP)	effect of co-infused human CRP on leptin-induced reduction of food intake and body weight, low dosage (ob/ob mice; human CRP 10 μg/day with human leptin, single pump)	effect on increase of rectal temperature induced by leptin (ob/ob mice; human CRP 40 μg/day)	effect of co-infused human CRP on leptin actions to restrain appetite and induce weight loss, high dosage (ob/ob mice; human CRP 40 μg/day with human leptin, single pump)	activation of STAT3 in hypothalamic tissues on co-infusion of CRP with leptin (ob/ob mice; ob/ob mice)	effect of CRP alone on food intake and body weight (ob/ob mice; ob/ob mice)	effect of CRP alone on food intake and body weight (ob/ob mice; ob/ob mice, listed as CRP)	effect of co-infused human CRP on leptin's alleviation of diabetes (ob/ob mice; ob/ob mice, co-infusion with leptin)	effect of human CRP alone on food intake and body weight (CRP-transgenic mice; CRP transgenic mice, no human leptin)	average baseline serum concentration of human CRP (CRP-transgenic mice; mice transgenically expressing human CRP)	Kd ([1]; HEK293 cells stably transfected with OB-Rb)	total human leptin concentrations in the sera (ob/ob mice; all groups infused with leptin (leptin only or leptin plus CRP), separate osmotic pumps)	effect of leptin on diabetes (blood glucose, plasma insulin, serum- and hepatic triglyceride) (ob/ob mice; ob/ob mice)	effect of human leptin on food-intake and body weight (ob/ob mice; ob/ob mice, 0.3 mg/kg/day s.c. infusion, 6 days)	physiological effects of human leptin in CRP-transgenic mice (CRP-transgenic mice; 0.6 mg/kg/day infusion, CRP-transgenic mice)	effect of human leptin on food intake, body weight, epidydimal fat-pad weight in wild-type littermates (CRP-transgenic mice; 0.6 mg/kg/day infusion, wild-type littermates)	total human leptin concentration in sera, transgenic mice (CRP-transgenic mice; end of infusion, CRP transgenic mice)	total human leptin concentration in sera, wild-type littermates (CRP-transgenic mice; end of infusion, wild-type littermates)
human CRP: human C-reactive protein, purified preparation from a commercial source	approximately 80 ng/ml	attenuate the physiological actions of human leptin	only partially attenuated	completely blocked	completely block	inhibited	did not affect food intake or body weight	does not influence food intake and body weight	reverted these effects	did not meaningfully affect	approximately 15 μg/ml	–	–	–	–	–	–	–	–
human leptin: human recombinant leptin	–	–	–	–	–	–	–	–	–	–	–	1 nM	15 to 20 ng/mL	alleviated diabetes	expected reduction in food-intake and body weight	completely blunted	expected reductions in food intake, body weight, and epidydimal fat-pad weight	7.6 ng/mL	3.2 ng/mL

From patent US20070218504A1, “HUMAN LEPTIN-DERIVED POLYPEPTIDES AND USES THEREOF” (UNIVERSITY OF PITTSBURGH, priority 2006, published 2007)
